Source: patent publication US12456194B2, “Methods for identifying and using cell behavior in drug screening and diagnosis” (Indiana University Research and Technology Corporation, priority 2020, dated 2025)

What was measured:
[1] = system: B16F10 melanoma cell line; assay: 3D tumor culture T cell infiltration drug screen scored by neural network, B16F10; conditions: B16F10 melanoma cell line-based screen; library of 141 small molecule epigenetic modulators; averaging the scores of a total of 10 images; FIG. 6
Description: (§1) Once the predicted Rd is determined, the predicted Rd for each patient can be classified as depicted in Step 215 of FIG. 2. For example, Rd can be defined as high, medium, and low-survival groups by binning the Rd's by or into risk classifications or categories, such as low survival, medium survival and high survival. Low survival may mean the Rd>75% of TCGA SKCM patient dataset; medium survival may mean Rd=25%-75% of TCGA SKCM patient dataset; and high survival may mean Rd<25% of TCGA SKCM patient dataset. Each risk classification or category may be associated with a predetermined values, such as 0 for low survival (high risk), 1 for medium survival (medium risk), and 2 for high survival (low risk).
(§2) The trained neural network as described in FIG. 1 and FIG. 4 is transferred to 3D tumor culture dataset 305, a drug screening method and/or a companion diagnostic method 300 may be performing using the algorithms discussed above with respect to FIGS. 1, 2 and 4 to objectively quantify and predict/score the effectiveness of a drug or a treatment based on a particular type of TIL behavior within 3D tumor cultures or patent tumor tissue samples. For example, a library of 141 small molecule epigenetic modulators in 2 cancer cell lines (e.g., B16F10 melanoma and UN-KC6141 pancreatic cancer) were screened. […]

[2] = system: UN-KC6141 pancreatic cancer cell line; assay: 3D tumor culture T cell infiltration drug screen scored by neural network, UN-KC6141; conditions: UN-KC6141 pancreatic cancer cell line-based screen; library of 141 small molecule epigenetic modulators; averaging the scores of a total of 10 images; FIG. 6
Description: as §1, §2

c1ccc([C@@H]2C[C@H]2NC2CCNCC2)cc1 [GSK-LSD1] was tested. Which “final score (T cell infiltration enhancement activity)” value [1] did it give?
The value was “highest score”.

And the “final score (T cell infiltration enhancement activity)” value [2]?
The value was “highest score”.
